# Laboratory results taken from PubChem BioAssay AID1963861 (Molecular Pharmacology Branch, DTP, NCI, 2024).
# Tested on: 885724-159-R-J1-PDC KRAS PDC multicell spheroid viability
# Test: Anticancer human tumor 885724-159-R-J1-PDC patient-derived pancreatic adenocarcinoma cell line growth inhibition [KRAS2]
# Settings: for IC50: curve of first compound; for viability, T/C: stronger effect = lower value
# How it was run: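 Combination screen of spheroid viability in tumor-cell co-cultures with endothelial (HUVEC) and mesenchymal stem cell stroma. Each agent was tested in half-log dilutions, topping at clinical Cmax or at 10 microM without a known Cmax.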
# [1] = second compound 0.1 µM, first compound 0.0316 µM
# [2] = second compound 0.1 µM, first compound 0.1 µM
# [3] = second compound 0.316 µM, first compound 0.0316 µM
# [4] = second compound 0.316 µM, first compound 0.1 µM
# [5] = second compound 1 µM, first compound 0.0316 µM
# [6] = second compound 1 µM, first compound 0.1 µM
# [7] = second compound 3.16 µM, first compound 0.0316 µM
# [8] = second compound 3.16 µM, first compound 0.1 µM
# [9] = second compound 10 µM, first compound 0.0316 µM
# [10] = second compound 10 µM, first compound 0.1 µM
# [11] = second compound 0.1 µM, first compound 0.000316 µM
# [12] = second compound 0.1 µM, first compound 0.001 µM
# [13] = second compound 0.1 µM, first compound 0.00316 µM
# [14] = second compound 0.1 µM, first compound 0.01 µM
# [15] = second compound 0.316 µM, first compound 0.000316 µM
# [16] = second compound 0.316 µM, first compound 0.001 µM
# [17] = second compound 0.316 µM, first compound 0.00316 µM
# [18] = second compound 0.316 µM, first compound 0.01 µM
# [19] = second compound 1 µM, first compound 0.000316 µM
# [20] = second compound 1 µM, first compound 0.001 µM
# [21] = second compound 1 µM, first compound 0.00316 µM
# [22] = second compound 1 µM, first compound 0.01 µM
# [23] = second compound 3.16 µM, first compound 0.000316 µM
# [24] = second compound 3.16 µM, first compound 0.001 µM
# [25] = second compound 3.16 µM, first compound 0.00316 µM
# [26] = second compound 3.16 µM, first compound 0.01 µM
# [27] = second compound 10 µM, first compound 0.000316 µM
# [28] = second compound 10 µM, first compound 0.001 µM
# [29] = second compound 10 µM, first compound 0.00316 µM
# [30] = second compound 10 µM, first compound 0.01 µM
# 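Note: spheroids exposed to agents for 7 days before readout.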
SMILES,IC50 (second compound 0.1 µM),IC50 (second compound 0.316 µM),IC50 (second compound 1 µM),IC50 (second compound 3.16 µM),IC50 (second compound 10 µM),"viability, T/C [1]","viability, T/C [2]","viability, T/C [3]","viability, T/C [4]","viability, T/C [5]","viability, T/C [6]","viability, T/C [7]","viability, T/C [8]","viability, T/C [9]","viability, T/C [10]","viability, T/C [11]","viability, T/C [12]","viability, T/C [13]","viability, T/C [14]","viability, T/C [15]",other results
COC(=O)c1ccc2c(C(=Nc3ccc(N(C)C(=O)CN4CCN(C)CC4)cc3)c3ccccc3)c(O)[nH]c2c1 + CC1OCC2(CCN(c3cnc(Sc4ccnc(N)c4Cl)c(N)n3)CC2)C1N,2020 nM,1820 nM,1520 nM,1400 nM,1090 nM,95%,95.8%,91.4%,84.9%,67.3%,69.3%,66.9%,74.1%,62%,68.8%,–,–,–,–,–,"viability, T/C (second compound 0.1 µM, first compound 0.316 µM): 92.2%; viability, T/C (second compound 0.1 µM, first compound 1 µM): 94.2%; viability, T/C (second compound 0.1 µM, first compound 3.16 µM): 21.9%; viability, T/C (second compound 0.1 µM, first compound 10 µM): 0.87%; viability, T/C (second compound 0.316 µM, first compound 0.316 µM): 80.9%; viability, T/C (second compound 0.316 µM, first compound 1 µM): 86.4%; viability, T/C (second compound 0.316 µM, first compound 3.16 µM): 17.1%; viability, T/C (second compound 0.316 µM, first compound 10 µM): 0.39%; viability, T/C (second compound 1 µM, first compound 0.316 µM): 73.8%; viability, T/C (second compound 1 µM, first compound 1 µM): 70.2%; viability, T/C (second compound 1 µM, first compound 3.16 µM): 14.8%; viability, T/C (second compound 1 µM, first compound 10 µM): 1.25%; viability, T/C (second compound 3.16 µM, first compound 0.316 µM): 78.2%; viability, T/C (second compound 3.16 µM, first compound 1 µM): 66%; viability, T/C (second compound 3.16 µM, first compound 3.16 µM): 10.4%; viability, T/C (second compound 3.16 µM, first compound 10 µM): 0.29%; viability, T/C (second compound 10 µM, first compound 0.316 µM): 61.4%; viability, T/C (second compound 10 µM, first compound 1 µM): 53.9%; viability, T/C (second compound 10 µM, first compound 3.16 µM): 2.07%; viability, T/C (second compound 10 µM, first compound 10 µM): 0.63%"
Cn1ncnc1[C@H]1c2n[nH]c(=O)c3cc(F)cc(c23)N[C@@H]1c1ccc(F)cc1 + CNCc1ccccc1-c1csc(C(C)Nc2nc(C)nc3cc(OC)c(OC)cc23)c1,> 100 nM,> 100 nM,> 100 nM,< 0.316 nM,< 0.316 nM,80.2%,80%,77.4%,71.3%,74.2%,76.9%,0.71%,0.75%,0.22%,0.48%,100%,104%,88.8%,99.5%,92.6%,"viability, T/C [16]: 89.2%; viability, T/C [17]: 84.1%; viability, T/C [18]: 98%; viability, T/C [19]: 82.5%; viability, T/C [20]: 83.4%; viability, T/C [21]: 91.2%; viability, T/C [22]: 78.5%; viability, T/C [23]: 1.47%; viability, T/C [24]: 1.04%; viability, T/C [25]: 0.71%; viability, T/C [26]: 0.73%; viability, T/C [27]: 0.51%; viability, T/C [28]: 0.45%; viability, T/C [29]: 0.13%; viability, T/C [30]: 0.3%"
CC(C)n1nc(-c2ccc3oc(N)nc3c2)c2c(N)ncnc21 + CC1OCC2(CCN(c3cnc(Sc4ccnc(N)c4Cl)c(N)n3)CC2)C1N,63.3 nM,49.8 nM,33 nM,12 nM,13.1 nM,53.5%,46.8%,55.7%,44.8%,53.4%,43.5%,45.5%,47.3%,44.1%,39.6%,90.5%,79%,69.8%,64.8%,86.5%,"viability, T/C [16]: 75.7%; viability, T/C [17]: 65%; viability, T/C [18]: 58.6%; viability, T/C [19]: 76.2%; viability, T/C [20]: 69.1%; viability, T/C [21]: 63.2%; viability, T/C [22]: 53.6%; viability, T/C [23]: 77.7%; viability, T/C [24]: 79.3%; viability, T/C [25]: 61.5%; viability, T/C [26]: 53.3%; viability, T/C [27]: 72.6%; viability, T/C [28]: 70%; viability, T/C [29]: 63.2%; viability, T/C [30]: 51.5%"
